Reference: patent publication US20210214368A1, “COMPOUNDS FOR THIOL-TRIGGERED COS AND/OR H2S RELEASE AND METHODS OF MAKING AND USING THE SAME” (University of Oregon, priority 2018, published 2021)

Assays:
[1] = Thiol-triggered H2S release in PBS containing CA (MB assay); conditions: for GSH-triggered H2S release: PBS containing GSH and CA
Procedure: To evaluate thiol effects on COS/H2S release from cyclic perthiocarbamate compound embodiments, compound 306a (50 μM) was incubated in PBS (pH 7.4, 10 mM) containing Cys or GSH (up to 4.0 mM) and CA (25 μg/mL) and H2S release was monitored by MB assay. […] Additionally, other thiol triggers, such as cysteine, homocysteine, and N-acetyl cysteine, were combined with compound 306a to evaluate if they would trigger the compound to release H2S.
In this example, GSH-triggered H2S release from compound 900 was evaluated. […] To improve the H2S releasing capacity of ATB-346, compound 900 was made by reacting ATB-346 with chlorocarbonyl sulfenyl chloride reagent (see Scheme 9). The resultant compound 900 was then added to PBS containing GSH and CA.
Release of H2S from compound 404c (25 μM) in the presence of L-cysteine or reduced glutathione (GSH) (500 μM, 20 equiv.) measured by the spectrophotometric methylene blue assay, with results shown in FIG. 17.
In this example, additional compounds, such as cyclic sulfenyl thiocarbamate compounds 306a-306e, were evaluated for their ability to release H2S upon exposure to a biological thiol, cysteine.
With the hybrid NSAID in hand, COS/H2S release in aqueous buffer was evaluated.

[2] = Cys-triggered fluorescence turn on in PBS; conditions: compound 10 μM, Cys 100 μM, PBS pH 7.4
Procedure: Representative Measurement of Fluorescence Intensity of Compound Embodiments—A freshly prepared compound 202a stock solution (3.00 μL, 10.0 mM in DMSO) was added to 3.00 mL of PBS (Ph 7.40, 10.0 Mm) containing CA (25.0 μg/mL) in a quartz fluorescence cuvette. A Cys stock solution (10.0 mM) was then added to reach the desired working concentration. The reaction solution was excited at 490 nm and the fluorescence intensity (500-650 nm) was measured and recorded using a Quanta Master 40 spectrofluorometer.
In this example, it was determined that Cys-induced compound 202a activation can be monitored by tracking the fluorescein formation and accompanied fluorescence response, and, in some embodiments, the reaction proceeds more quickly when higher concentrations of thiols are added. Time-dependent fluorescence spectra (FIG. 2A) and UV-vis spectra (FIG. 2B) of a particular compound embodiment, compound 202a, (10 μM) in PBS buffer (pH 7.4, 10 mM) containing Cys (100 μM) and CA (25 μg/mL) were obtained using a fluorescence spectrometer. […] Fluorescein formation was also confirmed by UV-vis spectroscopy under the identical conditions (FIG. 2B). Specifically, a freshly prepared compound 202a stock solution (3.00 μL, 10.0 mM in DMSO) was added to 3.00 mL of PBS (pH 7.40, 10.0 mM) containing CA (25.0 μg/mL) in a quartz UV cuvette. A Cys stock solution (30.0 μL, 10.0 mM in H2O) was then added. The absorbance (350-600 nm) was measured for 3 hours using a Cary 100 spectrometer. A Cys-dependent fluorescence enhancement was observed when treating compound 202a (10 μM) with increasing concentrations of Cys (1-20 equiv.), indicating a high sensitivity of compound 202a towards Cys. […] In addition, to confirm the H2S delivery from compound 202a, compound 202a (10 μM) was treated with Cys (100 μM) in PBS containing CA (25 μg/mL) and quantified H2S release using the MB assay. […] Optical measurement conditions were as follows: […], and slit width=0.3 mm.

RAW 264.7 cells = assay: Anti-inflammatory activity: LPS-induced NO2- accumulation (Griess); assay type: cell-based; conditions: pretreatment 25 μM for 2 hours, then LPS 0.500 μg/mL 24 hours
Procedure: Representative Procedure for Determining Anti-Inflammatory Activities of Compound Embodiments and Control Compounds—Macrophage RAW 264.7 cells were seeded in a 24-well plate (5×10^5 cells/well) containing 0.500 mL of DMEM and incubated at 37° C. under 5% CO2 for 24 hours. The confluent cells were washed with PBS and incubated with either compound 202a (0-25.0 μM), or GYY4137 (25.0 μM) at 37° C. for 2 hours. Compounds were then removed by washing cells with PBS and these pretreated cells were incubated in FBS-free DMEM containing LPS (0.500 μg/mL) for 24 hours. NO2— levels were measured by using a Griess Reagent Kit.
RAW 264.7 cells were incubated with compound 202a (0-25 μM) for 2 hours, followed by a 24-hour incubation with lipopolysaccharide (LPS, 0.5 μg/mL) to trigger the inflammatory response. The inflammation event usually results in the NO generation, which can be monitored by measuring nitrite (NO2—) accumulation.

HeLa cells = assay: Cellular imaging of H2S delivery in HeLa cells with C7-Az probe; assay type: cell-based; conditions: compound 50 μM, C7-Az 50 μM, 30 minutes
Procedure: HeLa cells were then plated in poly-D-lysine coated plates (MatTek) containing 2.00 mL of DMEM and incubated at 37° C. under 5% CO2 for 24 hours. The confluent cells were washed with PBS and then co-incubated with NucRed nuclear dye (2 drops), C7-Az (50.0 μM), and compound 202a (50.0 μM) for 30 minutes. Prior to imaging, the cells were washed with PBS and bathed in 2.00 mL of PBS. Cell imaging was performed on a Leica DMi8 fluorescent microscope. […] To confirm that compound 202a was not cytotoxic, confluent HeLa cells were incubated in FBS-free DMEM containing vehicle (0.5% DMSO), and compound 202a (6.25-50.0 μM) for 30 minutes in a 96-well plate. The culture media were then removed and 100 μL of FBS-free DMEM containing 10% CCK-8 solution was added to each well, and cells were incubated for 2 hours at 37° C. The absorbance at 450 nm was measured by using a microplate reader (see FIG. 8). The cell viability was measured and normalized to the vehicle group. The results are expressed as mean t SEM (n=6).

[3] = Spectroscopic properties in PBS buffer (pH 7.4, 10 mM); assay type: physicochemical; conditions: PBS (pH 7.4, 10 mM)
Procedure: In this example, the spectroscopic properties in PBS buffer (pH 7.4, 10 mM) of compounds 202a-202d, and control compound 204. Compounds 202a-202c and control compound 204 were not absorptive in the visible region and are all these compounds were not fluorescent because the fluorescein unit is locked in the closed lactone form.

SMILES: COc1ccc2cc(C(C)C(=O)Oc3ccc(C(N)=S)cc3)ccc2c1 (stereo not shown) [ATB-346, reference compound]
- GSH-triggered H2S release [1]: not detected

SMILES: O=C(Oc1ccc2c(c1)Oc1cc(OC(=O)SCc3ccccc3)ccc1C21OC(=O)c2ccccc21)SCc1ccccc1 [Compound 204]
- fluorescence response to Cys [2]: No fluorescence response
- anti-inflammatory activity at 25 μM (NO2− production) (RAW 264.7 cells): none of these species exhibited anti-inflammatory activities
- C7-Az (H2S probe) fluorescence in HeLa cells (HeLa cells): failed to turn on the fluorescence

SMILES: SCc1ccccc1 [benzyl mercaptan]
- anti-inflammatory activity at 25 μM (NO2− production) (RAW 264.7 cells): none of these species exhibited anti-inflammatory activities

SMILES: O=C(Oc1ccc2c(c1)Oc1cc(O)ccc1C21OC(=O)c2ccccc21)SSCc1ccccc1 (stereo not shown) [Compound 202d]
- fluorescence response to Cys [2]: minimal fluorescence enhancement
- Φ [3]: 0.11 ± 0.01
- ε [3]: 27,300 ± 2500 M^−1cm^−1
- λem [3]: 514 nm
- λmax [3]: 449 nm

SMILES: COc1ccc2cc(C(C)C(=O)Oc3ccc(-c4nc(=O)ss4)cc3)ccc2c1 (stereo not shown) [Compound 900]
- GSH-triggered H2S release [1]: promising H2S release was observed
- thiol-triggered H2S release in buffer with CTAB ([1]; compound 50 μM, PBS pH 7.4, CTAB 1.0 mM, CA 25 μg/mL, Cys or GSH 1.0 mM): thiol-triggered H2S release was immediately observed

SMILES: O=c1ssc(=O)n1-c1ccc(Cl)cc1 [Compound 404c]
- COS released on reaction with thiols ([1]; compound 25 μM, L-cysteine or GSH 500 μM (20 equiv.), CA, MB assay): two equivalents of COS
